According to PubChem BioAssay (NCI):
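Method: 48-hour compound exposure of cells in 96-well plates, five concentrations, linear interpolation of endpoints. The concentration for full growth arrest is given as TGI.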

Key:
Test in all cases: DTP human tumour cell line panel, 48 h
[1] = system: CAKI-1 renal
[2] = system: U251 CNS
[3] = system: SF-268 CNS
[4] = system: HOP-92 NSCLC
[5] = system: K-562 leukemia
[6] = system: RPMI-8226 leukemia
[7] = system: SF-539 CNS
[8] = system: HT29 colon
[9] = system: A549 NSCLC
[10] = system: RXF 393 renal

| SMILES | TGI [1] [µM] | TGI [2] [µM] | TGI [3] [µM] | TGI [4] [µM] | TGI [5] [µM] | TGI [6] [µM] | TGI [7] [µM] | TGI [8] [µM] | TGI [9] [µM] | TGI [10] [µM] |
| --- | --- | --- | --- | --- | --- | --- | --- | --- | --- | --- |
| COc1ccc(N2C(=O)/C(=C/c3ccc(N(CCC#N)CCC#N)cc3)N=C2c2ccccc2)c(OC)c1 | > 100 | > 100 | > 100 | 68.9 | 87 | > 100 | > 100 | > 100 |  |  |
| O=c1c(-c2ccc(O)cc2)coc2cc(O)cc(O)c12 |  | > 100 | > 100 | > 100 | > 100 | > 100 | > 100 | > 100 | > 100 |  |
| CC1(C)Oc2ccc3c(=O)c4ccccc4oc3c2C1C(=O)O (stereo not given) | > 100 | > 100 | > 100 |  | > 100 |  | > 100 | > 100 | > 100 | > 100 |
| CCOC(=O)c1c(-c2ccc(OC)c(O)c2)c(C#N)c(=S)n(C2OC(CO)C(O)C(O)C2O)c1-c1ccccc1 (stereo not given) | > 100 | > 100 | > 100 |  | > 100 | > 100 |  | > 100 | > 100 | > 100 |
| O=C(O)CCCc1ccc2c(c1)CC1(C2)Cc2ccc(CCCC(=O)O)cc2C1 |  | > 100 |  | > 100 | > 100 | > 100 | > 100 | > 100 | > 100 | > 100 |
| CCOC(=O)c1cn(C)nc1N/C(C)=C\C(=O)c1ccccc1 | > 100 | > 100 | > 100 | > 100 | > 100 |  | > 100 | > 100 | > 100 |  |
| C=C1CC(OC)(C(O)C(=O)N[C@H]2OCO[C@H]3C2O[C@H](C[C@H](O)COC)C(C)(C)C3OC)O[C@H](C)[C@@H]1C (stereo not given in full) |  | > 0.00772 | > 0.00772 |  | > 0.00772 | > 0.00772 | > 0.00772 | > 0.00772 | > 0.00772 | > 0.00772 |
| C=C1C(=O)O[C@H]2C/C(C=O)=C\[C@H]3O[C@H]3/C(COC(=O)C(C)C)=C/CC12 (stereo not given in full) | 7.31 | 19.6 |  |  | 10.4 | 7.61 | 47.3 | 12.8 | 37.3 | 14 |
| C=C(C(=O)OC)[C@H]1CC/C(C)=C/CC/C(C)=C/CC[C@@]2(C)O[C@@H]2C1 | 28.1 | 44 |  | 35.1 | 25.7 | 32.8 | 32.2 | 34.4 | 37.4 | 28.8 |
| O=C(NCCCCNCCCNC(=O)OCc1ccccc1)OCc1ccccc1 |  | > 100 | > 100 | 87.3 | 80.7 | > 100 | 43.1 | 37.7 | > 100 | 66.6 |
| Cc1ccc(S(=O)(=O)N2CCN(CCO)CCN(S(=O)(=O)c3ccc(C)cc3)CCN(CCO)CC2)cc1 | > 100 | 72.3 | > 100 | 66 | 35.3 |  | 33.4 | 26 | 57 | 82.1 |
| CCOC(=O)C1=C(C)N(c2ccc(C)cc2)C2(O)C=CC(=O)C3=C(O)c4ccccc4C(=O)C312 (stereo not given) | > 100 | > 100 | > 100 | 45.4 |  | 53.5 | 44.1 | 65.9 | > 100 | 62.1 |
